Type in all cases: in vivo
The subject of assay [1] is Balb/c mice. Nature of the assay: Murine auricular photo-irradiation test (ear edema after 2% ketoprofen + UVA). Conditions: UVA 40 J/cm^2, toward the KP group. As for the experimental part: The following experiments were carried out by referring to the method of Gerberick et al. (Food Chem. Toxicol., 27, 813-819 (1989) and modifying a part of it. Namely, as a test animal, Balb/c mice (female, 9-11 weeks old) were used. Each test substance {4-tert-butyl-4′-methoxydibenzoylmethane (BM-DBM), 2-ethylhexyl dimethoxybenzylidenedioxoimidazolidinepropionate (DB-D1H), terephthalylidene-3,3′-dicamphor-10,10′-disulfonic acid (TCDCS) and n-hexyl 2-(4-dimethylamino-2-hydroxybenzoyl)benzoate (DHB-BH)} which were dissolved in ethanol and 2% ketoprofen (KP) were applied on the auricle, and followed by WA irradiation at 40 J/cm^2.
The ear thickness was measured 24 hours after the WA irradiation, and an increase from the ear thickness prior to the start of the test was calculated.

Assay [2] concerns Balb/c mice. As to the kind of experiment: Murine auricular lymph node test 2 (modified LLNA, lymph node weight after ketoprofen + UVA). Conditions: test substance 2% with KP 2%; UVA 20 J/cm^2, three days; lymph node removed after 5 days; toward the KP group. As for the experimental part: Detection of a skin symptom due to an immunological mechanism resulting from KP upon photo-irradiation was carried out by other modified method of the above LLNA. Namely, as a test animal, Balb/c mice (female, 8-12 weeks old) were used. A test substance of 2% concentration and KP of 2% concentration which were dissolved in acetone—olive oil (4:1, v/v) or acetone—olive oil—physiological saline (3:3:1, v/v) were applied on the back of the pinna, and followed by UVA irradiation at 20 J/cm^2. This treatment inducing sensitization was carried out for three days consecutively. After 5 days from the start of the sensitization, the murine auricular lymph node was removed, and pooled in PBS. Then, PBS attached to the removed lymph node was sufficiently wiped up, and weighed. […]

The test system of assay [3] is Hartley strain guinea pig. Nature of the assay: Photo-sensitization test using guinea pigs (modified Adjuvant and Strip method). Conditions: 2% test substance with 2% KP in ethanol, UVA 10 J/cm^2, toward the KP group. As for the experimental part:
An effect exerted by the UV blocker to skin symptoms due to an immunological mechanism resulting from KP upon photo-irradiation was further examined by a modified method of the Adjuvant and Strip method of Sato et al. (Nishinihon Hifuka, 42, 831-837 (1980)) using guinea pigs. That is, the cervical back of a white female Hartley strain guinea pig (eight guinea pigs per group) was depilated, and the adjuvant was administered to four corners of 2×2 cm, and then, 2% ketoprofen (KP) solution, or 2% KP and 2% test substance {4-tert-butyl-4′-methoxydibenzoylmethane (BM-DBM)} solution, which were dissolved in ethanol, were applied on the above parts of 2×2 cm under an open condition, and after 1 hour, UVA (10 J/cm^2) was irradiated. This treatment of sensitization induction was carried out successively for 5 days. […] Skin reactions after 24 hours and 48 hours from the irradiation were evaluated according to the above standard of Sato et al. The suppression effect by BM-DBM to the skin symptoms due to the immunological mechanism resulting from KP upon photo-irradiation was evaluated by the erythema/edema suppression ratio (%) toward the KP group.

In assay [4] the test system is Balb/c mice. As to the kind of experiment: Murine local lymph node test 1 (modified LLNA, 3H-TdR uptake after ketoprofen + UVA). Conditions: UVA 20 J/cm^2, 3 days, toward the KP group. The method, then:
Detection of a skin symptom due to an immunological mechanism resulting from KP upon photo-irradiation was carried out by a modified method of Murine Local Lymph Node Assay (LLNA) proposed by The Interagency Coordinating Committee on the Validation of Alternative Methods (ICCVAM). Namely, as a test animal, Balb/c mice (female, 8-12 weeks old) were used. The test substance {4-tert-butyl-4′-methoxydibenzoylmethane (BM-DBM)} and 2% ketoprofen (KP) which were dissolved in acetone—olive oil (4:1, v/v) were applied on the back of the pinna, and followed by UVA irradiation at 20 J/cm^2. This treatment inducing sensitization was carried out for 3 days consecutively. After 5 days from the start of sensitization, a ^3H-methylthymidine (3H-TdR)/PBS solution of 20μCi per mouse was injected in the tail vein, and after 5 hours, the auricular lymph node was removed. The removed lymph node was made into a single lymph cell suspension by a cell strainer, then washed two times with PBS, and let it stand in 5% trichloroacetic acid (TCA) solution at 4° C. overnight to precipitate DNA. The precipitate was suspended in 1 ml of 5% TCA solution and a radiation activity was measured by a liquid scintillation counter.

[5] abbreviates: test substance conc. 0.5% in ethanol with 2% ketoprofen on the auricle, ear thickness 24 hours after irradiation.

As to “2-ethylhexyl dimethoxybenzylidenedioxoimidazolidinepropionate [DB-DIH]”, in the assay on Balb/c mice [1] (setting [5]), the “Ear edema suppression ratio (%)” value is listed as 34%.

Turning to `O=C(c1ccc(O)cc1O)c1ccc(O)cc1O` [2,2′,4,4′-Tetrahydroxybenzophenone, reference compound], the “Suppression ratio (%) in the weight increase of the auricular lymph node” value in the assay on Balb/c mice [2] is on record as −32%.

Regarding `COc1ccc(O)c(-n2nc3ccccc3n2)c1` [2-(2′-Hydroxy-5′-methoxyphenyl)-bezotriazole], the “Suppression ratio (%) in the weight increase of the auricular lymph node” value in the assay on Balb/c mice [2] is recorded as 4%.

Turning to `CCCCC(CC)COC(=O)C=Cc1ccc(OC)cc1` (centres unmarked) [2-Ethylhexyl 4-methoxycinnamate], the “Suppression ratio (%) in the weight increase of the auricular lymph node” value in the assay on Balb/c mice [2] worked out at 20%. Still for that read-out and setting: the figure for `Nc1ccc(C(=O)O)cc1` [4-Aminobenzoic acid, reference compound] is −39%. On to `COc1ccc(C(=O)CC(=O)c2ccc(C(C)(C)C)cc2)cc1` [BM-DBM, 4-tert-butyl-4′-methoxydibenzoylmethane], for which the “Erythema/Edema suppression ratio (%) After 24 hrs” value in assay [3] (skin reaction 24 hours after photo-induction irradiation) is given as 69%. The “Erythema/Edema suppression ratio (%) After 48 hrs” value in assay [3] (skin reaction 48 hours after photo-induction irradiation) stood at 74%. Moreover, the “^3H-TdR uptake suppression ratio(%)” value is listed as 30% in the assay on Balb/c mice [4] (BM-DBM concentration 0.06% with 2% ketoprofen in acetone-olive oil (4:1), auricular lymph node); 51% in the assay with Balb/c mice [4] (BM-DBM concentration 0.13% with 2% ketoprofen); 24% in the assay with Balb/c mice [4] (BM-DBM concentration 0.25% with 2% ketoprofen); 94% in the assay with Balb/c mice [4] (BM-DBM concentration 0.50% with 2% ketoprofen); 99% with Balb/c mice [4] (BM-DBM concentration 1.00% with 2% ketoprofen). In addition, the “Ear edema suppression ratio (%)” value in the assay with Balb/c mice [1] (test substance conc. 0.1% with 2% ketoprofen, 24 hours after irradiation) is recorded as 41%; in the assay with Balb/c mice [1] (test substance conc. 0.3% with 2% ketoprofen, 24 hours after irradiation) it was 81%; with Balb/c mice [1] (setting [5]), 98%. Also, the “Suppression ratio (%) in the weight increase of the auricular lymph node” value in the assay with Balb/c mice [2] was determined as 88%. With `CCCCCCOC(=O)c1ccccc1C(=O)c1ccc(N(C)C)cc1O` [DHB-BH, n-hexyl 2-(4-dimethylamino-2-hydroxybenzoyl)benzoate], the “Ear edema suppression ratio (%)” value with Balb/c mice [1] (setting [5]) is 84%. Turning to `CCOC(=O)c1ccc(N)cc1` [Ethyl 4-aminobenzoate], the “Suppression ratio (%) in the weight increase of the auricular lymph node” value in the assay on Balb/c mice [2] stood at 43%. Still for that read-out and setting: the figure for `O=C(OCCO)c1ccccc1O` [Ethylene glycol monosalicylate, reference compound] is −68%; for `COc1ccc(C(=O)c2ccccc2)c(O)c1` [Oxybenzone] it is 56%; for `O=C(Oc1ccccc1)c1ccccc1O` [Phenyl salicylate, reference compound] it is 0%. Turning to `CC1(C)C2CCC1(CS(=O)(=O)O)C(=O)/C2=C\c1ccc(/C=C2/C(=O)C3(CS(=O)(=O)O)CCC2C3(C)C)cc1` [TP-DCS, terephthalylidene-3,3′-dicamphor-10,10′-disulfonic acid], the “Ear edema suppression ratio (%)” value in the assay on Balb/c mice [1] (setting [5]) was found to be 65%. In the assay with Balb/c mice [2], the “Suppression ratio (%) in the weight increase of the auricular lymph node” value was determined as 63%.
